Measured values from patent US20220280548A1, “COMBINATION THERAPY FOR SPINAL MUSCULAR ATROPHY” (Biogen MA Inc., priority 2019, published 2022).
“Also recorded” adds a separate entry of the source.

Test system: neonatal (P0-P1) SMA mice having a human SMN2 transgene
Assay: Body weight and righting reflex in neonatal SMA mice given nusinersen and/or AAV-SMN1 (Example 9)
Assay type: in vivo
Details: monotherapy, single dose
Protocol: Nusinersen and AAV-SMN1 were administered to neonatal (P0-P1) SMA mice having a human SMN2 transgene. A low or high dose of nusinersen (1 μg and 3 μg respectively) was administered to the mice along with a low or high dose of AAV-SMN1 (1×10^10 GC or 3×10^10 GC respectively) at birth (P0-P1). The mice body weight and righting reflex were measured and compared to the body weight and righting reflex of control mice of the same genotype having received either nusinersen or AAV-SMN1 alone.
[…]

## nusinersen (antisense UCACUUUCAUAAUGCUGG; 2'-O-MOE, phosphorothioate, chemistry not fully specified) [uniformly modified 2′-O-(2-methoxyethyl) phosphorothioate antisense oligonucleotide consisting of 18 nucleotide residues, targets intron 7 of SMN2 pre-mRNA]
PND 16
  rescue of motor function (righting reflex): full rescue
Postnatal day (PND) 8
  rescue of motor function (righting reflex): partially rescues; also recorded: partial rescue
Relative to WT control
  body weight: lags behind the WT control
